Values quoted from earlier work as cited in patent US20240191206A1, “SERUM FREE MEDIA FOR SUSPENSION CULTURE OF MAMMALIAN LIVESTOCK PLURIPOTENT STEM CELLS” (ACCELLTA LTD., priority 2021, published 2024).

O=S(=O)(F)Cc1ccccc1 [PMSF, phenylmethylsulfonyl fluoride]
stability in water: rapidly degraded
concentration at which proteolytic inhibition occurs (serine protease): 0.1 to 1 mM
